How the values were obtained:
[1] = biological target: human GST-USP22 with Sgf11, Sgf73 1-105 and Sus1 (Homo sapiens, UniProt Q9UPT9); assay: in vitro USP22 deubiquitination assay (re-constructed deubiquitination module); format: biochemical; conditions: customized deubiquitination assay, human GST-USP22 with Sgf11, Sgf73 1-105, Sus1; read-out: IC50 in suppressing USP22 in vitro catalytic activity
Procedure: (A) The chemical structure of S02-S106 11-((4-cyanophenyl)amino)-7,8,9,10-tetrahydrobenzo(4,5)imidazole[1,2-b]isoquinoline-6-carbonitrile, (B & C) The efficacy of USP22i-S02 analogs in inhibiting USP22 catalytic activity was determined in vitro. The representative data from a triplicate analysis of S02-S106 with S02 as a control are shown (B). The IC50 of USP22i-S02 analogs in suppressing USP22 in vitro catalytic activity are shown (C). NA, not available.
We purchased human recombinant Sgf11 and Sgf73 1-105 and Sus1 proteins from R&D Systems Inc, and re-constructed the deubiquitination activity with our human GST-USP22. The USP22 customized deubiquitination was optimized and used for in vitro screening the activity of synthetic USP22i-s02 analogs with the USP22i-s02 as a control (FIG. 12).

[2] = test system: polarized CD4+ T-regulatory cells; assay: cytotoxicity in polarized CD4+ T-regulatory cells; format: cell-based, murine; conditions: 156 ng/mL to 5 ug/mL, compared to DMSO controls
Procedure: FIG. 2: Cytotoxicity of compounds from 156 ng/mL to 5 ug/mL concentration range in polarized CD4+ T-regulatory cells. Murine CD4+ T-cells were isolated and polarized in vitro to T-regulatory cells using 5 ng/mL IL-2, 2 μg/mL anti-IL-4, 2 μg/mL anti-IFNγ, and 1 ng/mL TGFβ. After 48 hours, the inhibitors were added to the cells.
We then synthesized all 17 compounds and validated their cytotoxicity to regulatory T cells. To this end, mouse CD4 T cells were polarized to FoxP3 Tregs for two days, followed by treatment of the cells with each of the compounds at the doses upto 5 ug/ml. […] In addition, the rest of the compounds had poor solubility in DMSO, and were not further tested.

[3] = test system: LLC1 tumors in RAG−/− mice; assay: LLC1 tumor growth in RAG−/− mice; format: in vivo; conditions: treated for 3 days at day 15 of tumor growth
Procedure: (§1) FIG. 8: Usp22i-S02 inhibits tumor growth in vitro and in vivo. A, In vitro counts of LLC1 after treatment with Usp22i-S02 under various concentrations for 24 hours (n=2). B, In vitro viability of LLC1 after treatment with Usp22i-S02 under various concentrations for 24 hours (n=2). C, In vitro relative growth of LLC1 cells treated with 10 ug/ml of Usp22i-S02 relative to DMSO treated control for 7 days via OD600 (n=4). D, Growth curve of 1 million subcutaneously injected LLC1 cells into RAG−/− mice treated for 3 days Usp22i-S02 relative to DMSO control injections at day 15 of tumor growth (n=4). C-D, Two-way ANOVA with Sidaks's multiple comparisons between rows relative to control was performed to determine statistical significance. All data are presented as mean±stdev. NS, not significant. *P<0.05, **P<0.01, ***P<0.001, ****P<0.0001.
(§2) As Usp22 is also an important oncogene, we were interested in the potential dual-therapeutic function of Usp22i-S02.

[4] = test system: PD-L1 expression in A549 cells; assay: PD-L1 expression in A549 cells by flow cytometry; format: cell-based, human; conditions: Homo sapiens; A549 cells, 48 hours; unit inferred; read-out: IC50 inhibition of PD-L1 expression
Procedure: FIG. 13: The effects of USP22i-S02-S106 on suppression of PD-L1 expression on human lung adenocarcinoma cells. Human […] lung adenocarcinoma A549 cells were treated with S02-S106 or its lead compound S02 for 48 hours. The expression levels of PD-L1 were determined by flow cytometry. (A) Representative flow data from A549 cells treated with 2 μM S02-S106 or with 15 μM S02 are shown. DMSO treated cells were used as an untreated control and USP22 CRISPR knockout A549 cells were used as a positive control. (B) The dose-dependent inhibition of PD-L1 expression in A549 cells by S02-S106 with USP22i-S02 as a control. Data were normalized with PD-L1 expression levels in USP22-KO cells as 100% of USP22 inhibition as shown in A. (C) Inhibition of PD-L1 expression in WT and USP22-null A549 cells by S02-S106.
We then used PD-L1 expression level as a measurement to evaluate the inhibitory efficacy of USP22 by S02-S106.
To determine the specificity of USP22i-S02-S106, we treated the WT and USP22-null lung cancer cells.

[5] = test system: LLC1 cells; assay: LLC1 cell counts, viability and growth in vitro; format: cell-based; conditions: 24 hours various concentrations; 10 ug/ml for 7 days
Procedure: as §1, §2

[6] = test system: FoxP3 expression in CD4+ natural T-regulatory cells; assay: FoxP3 expression in natural T-regulatory cells by flow cytometry; format: cell-based, murine; conditions: concentration of 1-2 ug
Procedure: FIGS. 3 and 4: Change in FoxP3 expression in murine CD4+ natural T-regulatory cells. Murine lymphocytes were isolated from the spleens and lymph nodes and cultured with varying concentrations of inhibitor (0.25 μg/mL to 2 μg/mL) or DMSO, anti-CD3, anti-CD28, TGFβ, and IL-2. After two days, lymphocytes were analyzed by flow cytometry for FoxP3 expression in natural T-regulatory (nTregs) gated on CD3+CD4+CD25+FoxP3+. (FIG. 3) Representative histograms of FITC::FoxP3 MFI in nTregs cultured with inhibitors at a concentration of 2 μg/mL. (FIG. 4) Representative plot of FITC::FoxP3 geometric MFI in nTregs across different concentrations of inhibitor.
We then analyzed whether treatment of Tregs with the compounds S106, 107 and 110 inhibits USP22 activity in Tregs as measured by FoxP3 expression levels by flow cytometry.

Sequence of human GST-USP22 with Sgf11, Sgf73 1-105 and Sus1 (Q9UPT9 whole entry): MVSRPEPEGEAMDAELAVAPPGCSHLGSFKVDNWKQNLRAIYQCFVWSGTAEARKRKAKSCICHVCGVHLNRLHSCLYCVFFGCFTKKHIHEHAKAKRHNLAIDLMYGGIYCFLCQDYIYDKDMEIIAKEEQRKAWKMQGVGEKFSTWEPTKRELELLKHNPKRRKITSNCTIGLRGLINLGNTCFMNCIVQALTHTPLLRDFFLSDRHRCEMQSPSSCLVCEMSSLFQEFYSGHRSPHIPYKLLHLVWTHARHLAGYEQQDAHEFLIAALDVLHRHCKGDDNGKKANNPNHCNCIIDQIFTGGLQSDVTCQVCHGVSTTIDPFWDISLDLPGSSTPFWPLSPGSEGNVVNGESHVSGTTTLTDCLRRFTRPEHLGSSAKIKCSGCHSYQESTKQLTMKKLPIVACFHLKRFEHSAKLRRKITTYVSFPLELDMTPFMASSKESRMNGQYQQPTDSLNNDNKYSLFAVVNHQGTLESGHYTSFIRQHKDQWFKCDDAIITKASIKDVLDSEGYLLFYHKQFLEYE
Sequence of human GST-USP22 with Sgf11, Sgf73 1-105 and Sus1 (Q14CW9 whole entry partner): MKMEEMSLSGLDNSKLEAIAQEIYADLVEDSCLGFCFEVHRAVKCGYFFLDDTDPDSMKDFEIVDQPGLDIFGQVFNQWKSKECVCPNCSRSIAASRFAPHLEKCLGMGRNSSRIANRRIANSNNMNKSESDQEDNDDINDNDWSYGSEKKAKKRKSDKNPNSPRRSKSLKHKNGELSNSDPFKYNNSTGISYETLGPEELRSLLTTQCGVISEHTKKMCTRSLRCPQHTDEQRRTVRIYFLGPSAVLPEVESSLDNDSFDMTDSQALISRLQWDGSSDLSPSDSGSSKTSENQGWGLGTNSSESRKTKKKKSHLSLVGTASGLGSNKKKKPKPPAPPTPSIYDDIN
Sequence of human GST-USP22 with Sgf11, Sgf73 1-105 and Sus1 (O15265 1-105 partner limits assumed): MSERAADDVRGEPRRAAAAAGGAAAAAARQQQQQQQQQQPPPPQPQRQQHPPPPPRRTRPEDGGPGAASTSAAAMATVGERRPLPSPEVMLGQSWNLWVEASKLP
Sequence of human GST-USP22 with Sgf11, Sgf73 1-105 and Sus1 (Q9NPA8 whole entry partner): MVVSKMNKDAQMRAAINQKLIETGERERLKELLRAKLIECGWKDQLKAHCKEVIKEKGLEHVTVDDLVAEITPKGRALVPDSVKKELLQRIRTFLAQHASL

Structure (SMILES): N#Cc1c2c(c(Nc3ccccc3)n3c1nc1ccccc13)CCCC2 [USP22i-S02, 11-anilino-7,8,9,10-tetrahydrobenzimidazo[1,2-b]isoquinoline-6-carbonitrile]
- IC50 [1]: ~4.7 µM
- cytotoxicity to Tregs [2]: does not show severe cytotoxicity
- tumor growth in Rag−/− mice with established tumors [3]: small but statistically significant decrease in tumor growth
- IC50 [4]: 13.7 µM
- LLC1 tumor cell counts, viability and growth in vitro [5]: decreased tumor cell counts, viability, and growth
- FoxP3 expression levels in Tregs [6]: did not reduce the levels of FoxP3

From patent publication US12624031B2, “Inhibitors of ubiquitin specific peptidase 22 (USP22) and uses thereof for treating diseases and disorders” (Northwestern University, priority 2022, dated 2026)
